Here are results for 2 compounds from publication PMC9071458, “The tRNA discriminator base defines the mutual orthogonality of two distinct pyrrolysyl-tRNA synthetase/tRNA^Pyl pairs in the same organism” (Nucleic Acids Research, 2022).

Assay in all cases: UAG suppression of SAMP1 reporter in H. volcanii, immunoblot and LC-MS/MS of the product
Common to all, as to format: cell-based

Assay [1] has as its target T1, HMET1 PylRS1 (Candidatus Methanohalarchaeum thermophilum, UniProt A0A1Q6DXK2, N163S/V165I).
T1 construct: gene BTN85_1602; deltaPylSn type (catalytic domain only), N-terminal 6xHis tag, expressed in Haloferax volcanii
Conditions: 1 mM 3-I-Phe in medium, tRNAPyl1, 42 °C; printed as PylRS1-SI.

For the next assay, the target named is T2, HMET1 PylRS2 (Candidatus Methanohalarchaeum thermophilum, UniProt A0A1Q6DTA0).
T2 construct: gene BTN85_0018; deltaPylSn type (catalytic domain only), N-terminal 6xHis tag, expressed in Haloferax volcanii
T2 sequence (A0A1Q6DTA0 1-273): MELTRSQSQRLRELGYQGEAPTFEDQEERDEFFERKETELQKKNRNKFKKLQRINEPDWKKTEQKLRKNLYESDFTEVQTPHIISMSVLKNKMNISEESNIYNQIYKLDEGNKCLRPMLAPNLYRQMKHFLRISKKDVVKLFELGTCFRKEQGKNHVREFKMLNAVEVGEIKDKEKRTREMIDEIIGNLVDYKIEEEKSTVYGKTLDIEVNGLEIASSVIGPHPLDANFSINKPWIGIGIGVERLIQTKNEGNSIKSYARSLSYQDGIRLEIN
The following applies: 1 mM BocK in medium, cognate tRNAPyl2, 42 °C.

Assay [2] deals with T3, HMET1 PylRS1 (Candidatus Methanohalarchaeum thermophilum, UniProt A0A1Q6DXK2).
T3 construct: gene BTN85_1602; deltaPylSn type (catalytic domain only), N-terminal 6xHis tag, expressed in Haloferax volcanii
T3 sequence (A0A1Q6DXK2 1-273): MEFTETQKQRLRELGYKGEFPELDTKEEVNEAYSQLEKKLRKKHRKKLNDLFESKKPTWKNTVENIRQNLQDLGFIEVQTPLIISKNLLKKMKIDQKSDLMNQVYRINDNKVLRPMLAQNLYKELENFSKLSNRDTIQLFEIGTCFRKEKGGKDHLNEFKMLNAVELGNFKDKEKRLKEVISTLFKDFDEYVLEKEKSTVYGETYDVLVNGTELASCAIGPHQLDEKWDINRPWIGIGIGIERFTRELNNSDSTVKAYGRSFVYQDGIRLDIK
Conditions: 1 mM BocK in medium, cognate tRNAPyl1, 42 °C.

T1 sequence (A0A1Q6DXK2 entry or part of it N163S/V165I): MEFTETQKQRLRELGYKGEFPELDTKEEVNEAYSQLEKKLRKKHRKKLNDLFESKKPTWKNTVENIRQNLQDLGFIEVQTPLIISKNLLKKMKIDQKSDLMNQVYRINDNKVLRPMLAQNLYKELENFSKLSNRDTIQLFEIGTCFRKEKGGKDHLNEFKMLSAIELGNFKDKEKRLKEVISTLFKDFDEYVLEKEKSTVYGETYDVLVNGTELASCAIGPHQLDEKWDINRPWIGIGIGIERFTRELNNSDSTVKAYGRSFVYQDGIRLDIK

On to `N[C@@H](Cc1cccc(I)c1)C(=O)O` [3-I-Phe], for which the “UAG suppression of SAMP1 reporter in H. volcanii, immunoblot and LC-MS/MS of the” value at HMET1 PylRS1 [1] is recorded as “The PylRS1-SI/tRNA^Pyl1 pair exhibited strong amber suppression in a 3-I-Phe-dependent manner”. Consider `CC(C)(C)OC(=O)NCCCC[C@H](N)C(=O)O` [BocK], for which the “UAG suppression of SAMP1 reporter in H. volcanii, immunoblot and LC-MS/MS of the” value is “native HMET1 PylRS/tRNA^Pyl pairs incorporate BocK into proteins via genetic code expansion in H. volcanii” on HMET1 PylRS2 and “both HMET1 PylRS/tRNA^Pyl pairs facilitated efficient amber suppression” on HMET1 PylRS1 [2].
